Species on record: Rattus norvegicus
Test: Open TG-GATES - Regimen: Single
Type: toxicity, organism-based, Sprague-Dawley
Set-up: regimen Single, gender Male, age 6 weeks
Conditions: in vivo, po, 80 mg/kg, route gavage, dose level Middle; for APTT / Bas / Eos / Fbg / Hb / Ht / Lym / MCH / MCHC / MCV / Mono / Neu / PT / Plat / RBC / Ret / WBC: tissue Blood; for KIDNEY_L / KIDNEY_R / KIDNEY_TOTAL: tissue Kidney; for LIVER: tissue Liver; for A/G / ALP / ALT / AST / BUN / CRE / Ca / Cl / DBIL / GLC / IP / K / LDH / Na / PL / RALB / TBIL / TC / TG / TP / gamma-GTP: tissue Plasma

CCSCC[C@H](N)C(=O)O [ETHIONINE]
TERMINAL_BW (3 h): 217.5 g | APTT (3 h): 18.6 s | Bas (3 h): 0% | Eos (3 h): 1% | Fbg (3 h): 209 mg/dL | Hb (3 h): 13.4 g/dL | Ht (3 h): 39.6% | Lym (3 h): 77.8% | MCH (3 h): 21.3 pg | MCHC (3 h): 33.9% | MCV (3 h): 62.7 fL | Mono (3 h): 2.8% | Neu (3 h): 17.6% | PT (3 h): 12.4 s | Plat (3 h): 119.9 x10_4/uL | RBC (3 h): 631.4 x10_4/ul | Ret (3 h): 6.8% | WBC (3 h): 71.3 x10_2/uL | KIDNEY_L (3 h): 1 g | KIDNEY_R (3 h): 1 g | KIDNEY_TOTAL (3 h): 1.9 g | LIVER (3 h): 9.9 g | A/G (3 h): 1.6 | ALP (3 h): 765.4 IU/L | ALT (3 h): 33 IU/L | AST (3 h): 62.8 IU/L | BUN (3 h): 10.4 mg/dL | CRE (3 h): 0.4 mg/dL | Ca (3 h): 10.3 mg/dL | Cl (3 h): 101.4 meq/L | DBIL (3 h): 0.052 mg/dL | GLC (3 h): 207.4 mg/dL | IP (3 h): 10 mg/dL | K (3 h): 3.8 meq/L | LDH (3 h): 171.6 IU/L | Na (3 h): 140.4 meq/L | PL (3 h): 120.8 mg/dL | RALB (3 h): 3.3 g/dL | TBIL (3 h): 0.1 mg/dL | TC (3 h): 68.2 mg/dL | TG (3 h): 43.8 mg/dL | TP (3 h): 5.4 g/dL | gamma-GTP (3 h): 1.4 IU/L | TERMINAL_BW (6 h): 212.9 g | APTT (6 h): 18.2 s | Bas (6 h): 0% | Eos (6 h): 1% | Fbg (6 h): 215 mg/dL | Hb (6 h): 13.5 g/dL | Ht (6 h): 39.6% | Lym (6 h): 79.4% | MCH (6 h): 21.4 pg | MCHC (6 h): 34.1% | MCV (6 h): 62.7 fL | Mono (6 h): 2.2% | Neu (6 h): 16.6% | PT (6 h): 12.9 s | Plat (6 h): 116.1 x10_4/uL | RBC (6 h): 632 x10_4/ul | Ret (6 h): 6.3% | WBC (6 h): 88 x10_2/uL | KIDNEY_L (6 h): 1 g | KIDNEY_R (6 h): 1 g | KIDNEY_TOTAL (6 h): 1.9 g | LIVER (6 h): 9.2 g | A/G (6 h): 1.7 | ALP (6 h): 877.2 IU/L | ALT (6 h): 35.6 IU/L | AST (6 h): 65.2 IU/L | BUN (6 h): 10.6 mg/dL | CRE (6 h): 0.3 mg/dL | Ca (6 h): 10.3 mg/dL | Cl (6 h): 102.6 meq/L | DBIL (6 h): 0.058 mg/dL | GLC (6 h): 207.4 mg/dL | IP (6 h): 9.4 mg/dL | K (6 h): 3.7 meq/L | LDH (6 h): 191.2 IU/L | Na (6 h): 140.4 meq/L | PL (6 h): 116.6 mg/dL | RALB (6 h): 3.3 g/dL | TBIL (6 h): 0.1 mg/dL | TC (6 h): 58.8 mg/dL | TG (6 h): 54.2 mg/dL | TP (6 h): 5.4 g/dL | gamma-GTP (6 h): 1 IU/L | TERMINAL_BW (9 h): 215.1 g | APTT (9 h): 19.5 s | Bas (9 h): 0% | Eos (9 h): 1% | Fbg (9 h): 205.4 mg/dL | Hb (9 h): 13.3 g/dL | Ht (9 h): 39% | Lym (9 h): 76% | MCH (9 h): 21 pg | MCHC (9 h): 34.1% | MCV (9 h): 61.4 fL | Mono (9 h): 2.4% | Neu (9 h): 19.4% | PT (9 h): 13.1 s | Plat (9 h): 117 x10_4/uL | RBC (9 h): 634.6 x10_4/ul | Ret (9 h): 6.7% | WBC (9 h): 77.6 x10_2/uL | KIDNEY_L (9 h): 1 g | KIDNEY_R (9 h): 1 g | KIDNEY_TOTAL (9 h): 1.9 g | LIVER (9 h): 9.1 g | A/G (9 h): 1.5 | ALP (9 h): 727 IU/L | ALT (9 h): 28.8 IU/L | AST (9 h): 54.8 IU/L | BUN (9 h): 10.6 mg/dL | CRE (9 h): 0.3 mg/dL | Ca (9 h): 10.4 mg/dL | Cl (9 h): 101.4 meq/L | DBIL (9 h): 0.086 mg/dL | GLC (9 h): 197.6 mg/dL | IP (9 h): 9.7 mg/dL | K (9 h): 3.6 meq/L | LDH (9 h): 174.2 IU/L | Na (9 h): 140.6 meq/L | PL (9 h): 133 mg/dL | RALB (9 h): 3.4 g/dL | TBIL (9 h): 0.1 mg/dL | TC (9 h): 70.4 mg/dL | TG (9 h): 95.6 mg/dL | TP (9 h): 5.6 g/dL | gamma-GTP (9 h): 1.4 IU/L | TERMINAL_BW (24 h): 227.7 g | APTT (24 h): 20.7 s | Bas (24 h): 0% | Eos (24 h): 1% | Fbg (24 h): 224 mg/dL | Hb (24 h): 13.7 g/dL | Ht (24 h): 40.7% | Lym (24 h): 79.8% | MCH (24 h): 21.1 pg | MCHC (24 h): 33.7% | MCV (24 h): 62.7 fL | Mono (24 h): 3.6% | Neu (24 h): 14% | PT (24 h): 13.6 s | Plat (24 h): 122.5 x10_4/uL | RBC (24 h): 649.8 x10_4/ul | Ret (24 h): 6.5% | WBC (24 h): 97.9 x10_2/uL | KIDNEY_L (24 h): 1 g | KIDNEY_R (24 h): 1 g | KIDNEY_TOTAL (24 h): 2.1 g | LIVER (24 h): 11.3 g | A/G (24 h): 1.5 | ALP (24 h): 1010.2 IU/L | ALT (24 h): 37 IU/L | AST (24 h): 69 IU/L | BUN (24 h): 13.4 mg/dL | CRE (24 h): 0.4 mg/dL | Ca (24 h): 10.8 mg/dL | Cl (24 h): 101.2 meq/L | DBIL (24 h): 0.09 mg/dL | GLC (24 h): 215.8 mg/dL | IP (24 h): 8.8 mg/dL | K (24 h): 3.8 meq/L | LDH (24 h): 210.6 IU/L | Na (24 h): 139.4 meq/L | PL (24 h): 129.6 mg/dL | RALB (24 h): 3.5 g/dL | TBIL (24 h): 0.1 mg/dL | TC (24 h): 57.6 mg/dL | TG (24 h): 98.2 mg/dL | TP (24 h): 5.8 g/dL | gamma-GTP (24 h): 1 IU/L

Reference: ChEMBL document CHEMBL3885861, “Open TG-GATES”
